Data from US10538797B2, “Method for the biotechnological production of flavone glycoside dihydrochalcones” (priority 2014, dated 2020).

System: E. coli BL21 transformed with pET28_CHI_ΔLid and pET22_ERED
Experiment: Whole-cell biocatalysis of naringin
Assay type: cell-based
Settings: 150 μM naringin, cell suspension OD=150 in 20 mM TRIS-HCl pH 7.5, gassed with nitrogen, 23° C., 900 rpm, 22 h
Procedure: After successful cloning the plasmid pET28_CHI_ΔLid (FIG. 1) together with the plasmid pET22_ERED was transformed into E. coli BL21.
200 mL LBkan, amp were inoculated with 1% (v/v) of an overnight culture and grown at 37° C. to an OD≥1. The induction of the expression was then carried out with 0.1 mM IPTG. The expression of the protein was carried out for 21 h at 20° C.
After the harvesting of the cells these were normalised with 20 mM TRIS-HCl pH 7.5 to an OD=150. For the implementation of the biocatalyses in each case 490 μL of the cell suspension was added with 10 μL naringin solution (stock solution: 7.5 mM naringin dissolved in 1,2-propylene glycol; final concentration: 150 μM) to a 2 mL Eppendorf reaction vessel and gassed with nitrogen. The biocatalyses were carried out at 23° C., 900 rpm and 22 h. The extraction of the substrates was carried out twice with ethyl acetate.

C[C@@H]1O[C@@H](O[C@H]2[C@H](Oc3cc(O)c4c(c3)O[C@H](c3ccc(O)cc3)CC4=O)O[C@H](CO)[C@@H](O)[C@@H]2O)[C@H](O)[C@H](O)[C@H]1O [naringin]
conversion of the naringin: 65%
